In patent US20210085798A1, “IMMUNITY LINKER MOLECULES AND THEIR USE IN THE TREATMENT OF INFECTIOUS DISEASES” (CENTAURI THERAPEUTICS LIMITED, priority 2018, published 2021):

Legend:
[1] = system: E. coli K12 (NCTC 10538); format: cell-based; conditions: 40 μM Polymyxin B, anti-Gal IgM M86 25 μg/mL, MFI (FITC) over vehicle control
Description: The assays were carried out in polystyrene 96-well U bottom plates (Costar). […] The samples were incubated for 1 hour at room temperature shaking at 450 rpm. […] Data from all samples were analysed using Kaluza software (Beckman Coulter).

[2] = system: P. aeruginosa (ATCC 27853); assay: Flow cytometric antibody recruitment assay using anti-Gal IgM antibody M86, P. aeruginosa; format: cell-based; conditions: anti-Gal IgM M86 40 μg/mL, MFI (FITC) over vehicle control
Description: Flow Cytometric Antibody Recruitment Assay Using an Anti-Galα1-3Galβ1-4GlcNAc (Anti-Gal) Antibody
A secondary fluorescently labelled anti-IgM antibody was used to detect the anti-Gal antibody binding.
The assays were carried out in polystyrene 96-well U bottom plates (Costar). Frozen stocks of P. aeruginosa (American Type Culture Collection, ATCC 27853) in mid-exponential phase were thawed, centrifuged and resuspended in LB broth, Miller (Fisher BP1426-500) at OD595=0.2. The bacteria were grown to mid-exponential phase (OD595=0.4), washed once with Hank's Balanced Salt Solution with calcium and magnesium (HBSS+/+) and then resuspended in HBSS+/+ at a bacterial OD595=0.6. […] After three final washes with 200 μL HBSS+/+, the bacteria were resuspended in 200 μL HBSS+/+ and evaluated for anti-Gal antibody binding on a Cytoflex flow cytometer (Beckman Coulter). 50,000 counts of bacterial particles were sampled and the median fluorescent shift was recorded in the FITC-A channel. Data from all samples were analysed using Kaluza software (Beckman Coulter). […] The fold shift over background was calculated by dividing the Median Fluorescent Intensity (MFI) obtained in the presence of 20 μM of the Example compounds by the MFI value obtained in the vehicle controls, i.e., the absence of Examples. […] The shift in fluorescence intensity (FITC) occurs due to the binding event at each end of the molecule.

## Polymyxin B
[1]
  IgM Recruitment (Average fold change): 4 fold change
[2]
  IgM Recruitment (20 μM, Average fold change): 1 fold change
